The target of this assay is KRas G12D (Homo sapiens (Human), UniProt P01116, G12D). As to the kind of experiment: KRas G12D Binding Assay (TR-FRET displacement of Cy5 labelled tracer). Conditions: GDP-loaded KRAS G12D (amino acids 1:169), 60 minute incubation at 22° C. The method, then:
After a 60 minute incubation at 22° C., the reaction was measured using a PerkinElmer EnVision multimode plate reader via TR-FRET dual wavelength detection, and the percent of control (POC) calculated using a ratiometric emission factor. […] The POC values were fit to a 4-parameter logistic curve and the IC50 value was determined as the concentration where the curve crosses 50 POC.
ND stands for “not determined.”

Chain of KRas G12D (P01116 other isoform, or with tags, fused parts or gaps G12D): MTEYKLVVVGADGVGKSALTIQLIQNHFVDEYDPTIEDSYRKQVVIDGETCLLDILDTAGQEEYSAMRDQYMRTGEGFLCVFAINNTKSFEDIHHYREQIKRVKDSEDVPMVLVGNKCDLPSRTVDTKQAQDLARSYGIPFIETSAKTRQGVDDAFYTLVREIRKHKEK

A word on the IC50: it is the concentration that gives 50% inhibition. Read a high IC50 as a need for much substance. The molecule `COc1cccc2cccc(-c3ncc4c(N5C[C@H]6CC[C@@H](C5)N6)nc(OCC56CCCN5CCC6)nc4c3F)c12` [Example 236, 4-((1R,5S)-3,8-diazabicyclo[3.2.1]octan-3-yl)-8-fluoro-2-((hexahydro-1H-pyrrolizin-7a-yl)methoxy)-7-(8-methoxynaphthalen-1-yl)pyrido[4,3-d]pyrimidine] gave an IC50 of 0.025 µM.
As to `Cc1ccc2[nH]ncc2c1-c1ncc2c(N3CC4CCC(C3)N4)nc(OCC34CCCN3C[C@H](F)C4)nc2c1F` (mixture of isomers) [Example 331, 4-((1R,5S)-3,8-diazabicyclo[3.2.1]octan-3-yl)-8-fluoro-2-((2-fluorotetrahydro-1H-pyrrolizin-7a(5H)-yl)methoxy)-7-(5-methyl-1H-indazol-4-yl)pyrido[4,3-d]pyrimidine (racemic, trans)], the IC50 worked out at 0.114 µM.
Take `CC(C)c1c(Cl)cccc1-c1ncc2c(N3C[C@H]4CC[C@@H](C3)N4)nc(OCC34CCCN3CCC4)nc2c1F` [Example 298, 4-((1R,5S)-3,8-diazabicyclo[3.2.1]octan-3-yl)-7-(3-chloro-2-isopropylphenyl)-8-fluoro-2-((hexahydro-1H-pyrrolizin-7a-yl)methoxy)pyrido[4,3-d]pyrimidine]: the IC50 stood at 0.0083 µM.
The molecule `O=C(OC[C@H]1CC[C@@]2(COc3nc(N4CC5CCC(C4)N5)c4cnc(-c5cccc6cccc(Cl)c56)c(F)c4n3)CCCN12)N1CCCC1` [Example 443, ((3R,7aR)-7a-(((4-(3,8-diazabicyclo[3.2.1]octan-3-yl)-7-(8-chloronaphthalen-1-yl)-8-fluoropyrido[4,3-d]pyrimidin-2-yl)oxy)methyl)hexahydro-1H-pyrrolizin-3-yl)methyl pyrrolidine-1-carboxylate] had an IC50 of 0.0032 µM.
`CN1CC[C@@H](COc2nc(N3C[C@H]4CC[C@@H](C3)N4)c3cnc(-c4cccc5cccc(Cl)c45)c(F)c3n2)C1` [Example 356, 4-((1R,5S)-3,8-diazabicyclo[3.2.1]octan-3-yl)-7-(8-chloronaphthalen-1-yl)-8-fluoro-2-(((R)-1-methylpyrrolidin-3-yl)methoxy)pyrido[4,3-d]pyrimidine] registered a concentration for half-maximal inhibition (IC50) of 0.0872 µM.
In turn, `Cc1cc2sc(N)nc2c(-c2ncc3c(N4C[C@H]5CC[C@@H](C4)N5)nc(OCC45CCCN4CCC5)nc3c2F)c1C` [Example 456, 4-(4-((1R,5S)-3,8-diazabicyclo[3.2.1]octan-3-yl)-8-fluoro-2-((hexahydro-1H-pyrrolizin-7a-yl)methoxy)pyrido[4,3-d]pyrimidin-7-yl)-5,6-dimethylbenzo[d]thiazol-2-amine] showed a half-maximal inhibitory concentration (IC50) of 0.966 µM.
`CCc1ccc(O)cc1-c1ncc2c(N3C[C@H]4CC[C@@H](C3)N4)nc(OCC34CCCN3CCC4)nc2c1F` [Example 263, 3-(4-((1R,5S)-3,8-diazabicyclo[3.2.1]octan-3-yl)-8-fluoro-2-((hexahydro-1H-pyrrolizin-7a-yl)methoxy)pyrido[4,3-d]pyrimidin-7-yl)-4-ethylphenol] had a half-inhibitory concentration (IC50) of 0.0015 µM.
The molecule `CN1CCC[C@H]1COc1nc(N2CC3CCC(C2)N3)c2cnc(-c3cccc4cccc(C#N)c34)c(F)c2n1` [Example 192] returned an IC50 of 0.225 µM.
The figure for `Fc1ccc2cccc(-c3ncc4c(N5CC6CCC(C5)N6)nc(OC[C@@]56CCCN5C[C@H](F)C6)nc4c3F)c2c1Cl` (racemic) [Example 336, 4-((1R,5S)-3,8-diazabicyclo[3.2.1]octan-3-yl)-7-(8-chloro-7-fluoronaphthalen-1-yl)-8-fluoro-2-((2-fluorotetrahydro-1H-pyrrolizin-7a(5H)-yl)methoxy)pyrido[4,3-d]pyrimidine (racemic, trans)] is 0.0031 µM.
Molecule `COC1(OC)CN2CCCC2(COc2nc(N3C[C@H]4CC[C@@H](C3)N4)c3cnc(-c4cccc5cccc(Cl)c45)c(F)c3n2)C1` (stereo partly drawn) [Example 404, 4-((1R,5S)-3,8-diazabicyclo[3.2.1]octan-3-yl)-7-(8-chloronaphthalen-1-yl)-2-((2,2-dimethoxytetrahydro-H-pyrrolizin-7a(5H)-yl)methoxy)-8-fluoropyrido[4,3-d]pyrimidine] showed an IC50 of 0.0608 µM.

The record behind these values is US20230279025A1, “KRAS G12D INHIBITORS” (Mirati Therapeutics, Inc., priority 2020, published 2023).
